The target of data set [1] is T1, Amine oxidase [flavin-containing] B (Homo sapiens, UniProt P27338).
T1 sequence (P27338 whole entry): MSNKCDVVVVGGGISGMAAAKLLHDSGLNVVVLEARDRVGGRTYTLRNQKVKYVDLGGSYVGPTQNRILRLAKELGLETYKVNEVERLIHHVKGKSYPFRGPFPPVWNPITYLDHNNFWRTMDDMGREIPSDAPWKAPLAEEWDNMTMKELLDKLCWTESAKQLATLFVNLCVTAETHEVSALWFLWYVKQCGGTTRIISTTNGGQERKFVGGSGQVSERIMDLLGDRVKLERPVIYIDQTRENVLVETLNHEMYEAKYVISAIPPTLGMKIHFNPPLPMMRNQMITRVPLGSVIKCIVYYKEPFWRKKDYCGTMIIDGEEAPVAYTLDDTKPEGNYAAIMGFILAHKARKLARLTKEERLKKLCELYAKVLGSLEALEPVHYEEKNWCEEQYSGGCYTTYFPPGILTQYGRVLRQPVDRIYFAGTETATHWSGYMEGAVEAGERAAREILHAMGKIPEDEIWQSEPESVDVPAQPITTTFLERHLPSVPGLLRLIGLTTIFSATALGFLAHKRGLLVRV
Briefly: Inhibition of human recombinant MAOB at 1 mM by fluorimetric method. To be noted: 1000 µM.

For data set [2], the species on record is Homo sapiens. Briefly: Selectivity ratio of IC50 for human recombinant MAOA to IC50 for human recombinant MAOB.
For data set [3], the target named is T1, Amine oxidase [flavin-containing] B. Briefly: Inhibition of human recombinant MAOB at 100 uM by fluorimetric method.
For data set [4], the target named is T2, Amine oxidase [flavin-containing] A (Homo sapiens, UniProt P21397).
T2 sequence (P21397 whole entry): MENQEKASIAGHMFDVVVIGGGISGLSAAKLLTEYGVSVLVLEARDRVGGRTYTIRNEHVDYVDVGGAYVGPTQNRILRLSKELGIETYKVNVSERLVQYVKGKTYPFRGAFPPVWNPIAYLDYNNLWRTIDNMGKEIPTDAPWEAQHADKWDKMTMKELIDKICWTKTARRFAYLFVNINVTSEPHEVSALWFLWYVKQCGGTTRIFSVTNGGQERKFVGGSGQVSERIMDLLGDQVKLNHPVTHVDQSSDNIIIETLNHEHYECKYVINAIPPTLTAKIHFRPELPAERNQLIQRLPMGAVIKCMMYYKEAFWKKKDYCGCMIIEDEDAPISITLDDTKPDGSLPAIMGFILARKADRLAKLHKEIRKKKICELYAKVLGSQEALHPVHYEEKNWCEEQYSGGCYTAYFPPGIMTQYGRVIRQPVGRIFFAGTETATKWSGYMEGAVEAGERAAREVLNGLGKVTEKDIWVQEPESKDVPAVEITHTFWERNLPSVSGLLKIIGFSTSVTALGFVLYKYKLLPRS
Briefly: Inhibition of human recombinant MAOA by fluorimetric method.

Data set [5] concerns the target T2, Amine oxidase [flavin-containing] A. Briefly: Inhibition of human liver MAOA.
For data set [6], the target named is T1, Amine oxidase [flavin-containing] B. Briefly: Inhibition of human liver MAOB.

Some results are limits rather than exact numbers.

Regarding `CC(=O)[C@@]1(O)CC[C@H]2[C@@H]3C[C@H](C)C4=CC(=O)CC[C@]4(C)[C@H]3CC[C@@]21C`, in data set [1], the Activity entry is recorded as “Not Active”.
One may read the IC50 as the concentration that inhibits the measured activity by half. `COc1c(OCC(C)=O)ccc2cc(NC(C)=O)c(=O)oc12`: the Ratio IC50 in data set [2] is < 0.53. Besides, the Activity entry in data set [3] is listed as “Not Active”. Also, the IC50 in data set [4] was 5.31 µM.
As for `OC1CCCCC1N1CCC(c2ccccc2)CC1` (stereo unspecified), the Activity result in data set [5] and in data set [6] was “Not Active” each time.
In the case of `COc1c(O)ccc2c(C)cc(=O)oc12`, in data set [3], the Activity entry was “Not Active”. The IC50 in data set [4] was 80.3 µM.
For the compound `O=c1ccc2cc3c4c(oc3cc2o1)CC4`, the Ratio IC50 in data set [2] is < 0.58. The Activity entry in data set [3] is recorded as “Not Active”. Moreover, the half-inhibitory concentration (IC50) in data set [4] worked out at 57.9 µM.
With `CCOC(N)=O`, the Activity entry in data set [5] and in data set [6] was “Not Active” in each case.
Turning to `O=C1CCCCC1Oc1ccc2ccc(=O)oc2c1` (stereo unspecified), the Ratio IC50 in data set [2] is < 0.43. Besides, the Activity entry in data set [3] is listed as “Not Active”. For the same compound, in data set [4], the IC50 is 43 µM.
`COC(=O)[C@H](Cc1cnc[nH]1)NC(=O)Cc1ccc(N(CCCl)CCCl)cc1`: the Activity result in data set [3] and in data set [6] was “Not Active” in each case.
On to `O=NN(CCCl)C(=O)NC[C@@H](O)[C@H](O)CN(N=O)C(=O)NCCCl`, for which the Activity result in data set [1] was “Not Active”.
Take `O=c1oc2cc(O)ccc2c2c1CCC2`: the Ratio IC50 in data set [2] was < 0.48. Moreover, the Activity result in data set [3] is on record as “Not Active”. Besides, the IC50 in data set [4] came to 48.2 µM.
Turning to `Cc1c(O)ccc2c3c(c(=O)oc12)CCCC3`, in data set [2], the Ratio IC50 is < 0.6. For the same compound, the Activity result in data set [3] is reported as “Not Active”. In addition, the IC50 in data set [4] came out at 60.1 µM.
For the compound `CS(=O)(=O)OC[C@@H]1O[C@H]1[C@@H]1O[C@H]1COS(C)(=O)=O`, in data set [1], the Activity entry is “Not Active”.
For the compound `COc1c(O)ccc2c3c(c(=O)oc12)CCC3`, the Ratio IC50 in data set [2] is < 0.63. Moreover, the Activity result in data set [3] is listed as “Not Active”. The IC50 in data set [4] came out at 63.5 µM.
Turning to `N[C@@H]1C[C@H]1c1ccccc1.N[C@H]1C[C@@H]1c1ccccc1` (racemic) [TRANYLCYPROMINE], the Activity result in data set [5] and in data set [6] was “Not Active” throughout.
Regarding `CC(=O)Nc1nnc(S(N)(=O)=O)s1` [ACETAZOLAMIDE], the Activity result in data set [5] and in data set [6] was “Not Active” in each case.
`O=C1c2ccccc2C(=O)c2c(NCCNCCO)ccc(NCCNCCO)c21` [AMETANTRONE]: the Activity entry in data set [5] and in data set [6] was “Not Active” each time.
For the compound `CCOC(=O)OC(C)OC(=O)[C@@H]1N2C(=O)[C@@H](NC(=O)[C@H](N)c3ccccc3)[C@H]2SC1(C)C` (stereo partly specified) [BACAMPICILLIN], the Activity result in data set [5] and in data set [6] was “Not Active” each time.
Turning to `C[C@H](N)C(=O)N[C@@H]1[C@H]2C(=C(O)C[C@@H](O)[C@@H]2O)C(=O)O[C@]1(C)C(Cl)Cl` [BACTOBOLIN], the Activity result in data set [5] and in data set [6] was “Not Active” each time.
For the compound `C=C1[C@@H](C)[C@H]2[C@H](Cc3ccccc3)NC(=O)[C@]23OC(=O)/C=C/[C@H](O)CCC[C@@H](C)C/C=C/[C@H]3[C@@H]1O` [CYTOCHALASIN B], in data set [1], the Activity entry is recorded as “Not Active”.
As for `CC(=O)OCC(=O)[C@@]12N=C(C)O[C@@H]1C[C@H]1[C@@H]3CCC4=CC(=O)C=C[C@]4(C)[C@H]3[C@@H](O)C[C@@]12C` [DEFLAZACORT], the Activity result in data set [5] and in data set [6] was “Not Active” in each case.
Consider `NS(=O)(=O)c1cc(Cl)c(Cl)c(S(N)(=O)=O)c1` [DICHLORPHENAMIDE], for which the Activity result in data set [1] is “Not Active”.
Still for that read-out and setting: for `C1OC1CN1CCC(C2CCN(CC3CO3)CC2)CC1` (stereo unspecified) [EPIPROPIDINE] the value was “Not Active”; for `CN1C[C@H](C(=O)N[C@]2(C)O[C@@]3(O)[C@@H]4CCCN4C(=O)[C@H](Cc4ccccc4)N3C2=O)C=C2c3cccc4[nH]cc(c34)C[C@H]21` [ERGOTAMINE], “Not Active”.
Consider `CCc1cc(C(N)=S)ccn1` [ETHIONAMIDE], for which the Activity entry in data set [3] and in data set [6] was “Not Active” each time.
Consider `CCC1(C)CC(=O)NC1=O` (stereo unspecified) [ETHOSUXIMIDE], for which, in data set [3], the Activity result is listed as “Not Active”.
On to `O=c1[nH]c(=O)n([C@H]2C[C@H](O)[C@@H](CO)O2)cc1F` [FLOXURIDINE], for which the Activity entry in data set [3] and in data set [6] was “Not Active” in each case.
`CC1(C)O[C@@H]2C[C@H]3[C@@H]4C[C@H](F)C5=CC(=O)C=C[C@]5(C)[C@@]4(Cl)[C@@H](Cl)C[C@]3(C)[C@]2(C(=O)CO)O1` [FLUCLORONIDE]: the Activity entry in data set [3] and in data set [6] was “Not Active” in each case.
Consider `N=c1nc2n(cc1F)[C@@H]1O[C@H](CO)[C@@H](O)[C@@H]1O2` [FLUROCITABINE], for which, in data set [1], the Activity result is “Not Active”.
As for `NC(N)=N/N=C/c1ccc([N+](=O)[O-])o1` [FURAGUANIDINE], the Activity result in data set [3] and in data set [6] was “Not Active” in each case.
Consider `O=[N+]([O-])c1ccc(/C=N/n2cnnc2)o1` [FURAZONAL], for which the Activity result in data set [3] and in data set [6] was “Not Active” each time.
Take `O=CN(O)CC(=O)O` [HADACIDIN]: the Activity result in data set [1] was “Not Active”.
As to `CC[C@H](c1ccc(OP(=O)(O)O)cc1)[C@@H](CC)c1ccc(OP(=O)(O)O)cc1` [HEXESTROL DIPHOSPHATE], the Activity entry in data set [3] and in data set [6] was “Not Active” throughout.
With `CCCOC1=C(N2CC2)C(=O)C(OCCC)=C(N2CC2)C1=O` [INPROQUONE], the Activity entry in data set [1] was “Not Active”.
Take `O=[N+]([O-])O[C@@H]1CO[C@H]2[C@@H]1OC[C@@H]2O` [ISOSORBIDE MONONITRATE]: the Activity result in data set [3] and in data set [6] was “Not Active” in each case.
With `N[C@@H](Cc1ccc(O)c(O)c1)C(=O)O` [LEVODOPA], in data set [1], the Activity result is “Not Active”.
Take `CCN(CC)CC(=O)Nc1c(C)cccc1C` [LIDOCAINE]: the Activity result in data set [1] was “Not Active”.
`O=NN(CCCl)C(=O)NC1CCCCC1` [LOMUSTINE]: the Activity result in data set [3] and in data set [6] was “Not Active” in each case.
With `O=C(Cc1ccc(N(CCCl)CCCl)cc1)NC[C@H](NC(=O)Cc1ccc(N(CCCl)CCCl)cc1)C(=O)O` [LONIN 4], the Activity result in data set [3] and in data set [6] was “Not Active” throughout.
For `Cc1cccc(C)c1NC(=O)C1CCCCN1C` (stereo unspecified) [MEPIVACAINE], the Activity result in data set [3] and in data set [6] was “Not Active” throughout.
Take `CCCC(C)(COC(N)=O)COC(N)=O` [MEPROBAMATE]: the Activity result in data set [3] and in data set [6] was “Not Active” in each case.
Take `CC(=O)Nc1c(I)c(C(=O)N[C@H]2C(O)O[C@H](CO)[C@@H](O)[C@@H]2O)c(I)c(N(C)C(C)=O)c1I` (stereo partly specified) [METRIZAMIDE]: the Activity entry in data set [3] and in data set [6] was “Not Active” in each case.
As to `Cc1ncc([N+](=O)[O-])n1CCO` [METRONIDAZOLE], the Activity entry in data set [3] and in data set [6] was “Not Active” in each case.
On to `CCCCNc1ccc(C(=O)OCCN(C)C)cc1` [TETRACAINE], for which the Activity result in data set [5] and in data set [6] was “Not Active” throughout.
`Clc1sc(Cl)c(Cl)c1Cl` [TETRACHLOROTHIOPHENE]: the Activity entry in data set [5] and in data set [6] was “Not Active” in each case.

The values above are taken from ChEMBL document CHEMBL1152129, “Quantitative structure-activity relationship and complex network approach to monoamine oxidase A and B inhibitors” (J Med Chem, 2008).
